Experimental data as given in patent publication US20230293525A1, “METHODS AND COMPOSITIONS FOR THE TREATMENT OF VIRAL INFECTIONS” (priority 2020, published 2023).

Test system: minor spliceosome snRNAs including U11, U12, U6atac, and U4atac
Experiment: qPCR of minor spliceosome snRNAs in HEK 293 cells treated with Tenovin 1
Assay type: cell-based
Conditions: 10 μM, incubated 24 hours, qPCR normalized to RN7SK, versus DMSO

`CC(=O)Nc1ccc(NC(=S)NC(=O)c2ccc(C(C)(C)C)cc2)cc1` [Tenovin 1] was tested, and the “levels of minor spliceosome snRNAs U11, U12, U6atac and U4atac (qPCR)” value was “successfully downregulates”.
